Measured values from US20260355191A1, “PAN-RAS INHIBITOR COMPOUND” (ADLAI NORTYE BIOPHARMA CO., LTD., priority 2024, published 2026).

Experiments:
[1] = molecular target: ternary complex comprising RAS and CypA; KRAS^G12V (Homo sapiens, UniProt P01116+P62937, G12V); assay: Ternary complex binding assay (BLI), KRAS G12V; conditions: GMPPNP-loaded KRAS^G12V, fixed concentration of CypA, pH 7.4, read-out: KD2 (ternary complex equilibrium dissociation constant)
Experimental: (§1) To evaluate the ability of the test compounds to induce the formation of a ternary complex comprising RAS and CypA, we employed a Bio-layer Interferometry (BLI) method (Octet R8) to monitor the binding kinetics among the compounds, RAS, and CypA, and to calculate the affinity of the ternary complex. GMPPNP was first incubated with RAS protein to load GMPPNP onto RAS. His-tagged RAS proteins with different mutations were then immobilized on NTA sensors, followed by baseline equilibration for 120 seconds in the assay buffer (20 mM HEPES, pH 7.4, 150 mM NaCl, 5 mM MgCl2, 1 mM TCEP, 5 μM GMPPNP, 0.01% Tween 20). The sensors were subsequently exposed to buffer containing various concentrations of the compounds and a fixed concentration of CypA, and the association phase of ternary complex formation was monitored in real time. Once binding reached a plateau, the sensors were transferred to compound- and CypA-free buffer to measure the dissociation phase. To ensure accuracy, DMSO normalization was performed, buffer composition was optimized to reduce non-specific binding, and both negative and positive controls were employed to verify assay specificity. Data were processed using Octet Analysis Studio 13.0, analyzed using a 1:1 binding model, and the association rate constant (ka), dissociation rate constant (kdis), and equilibrium dissociation constant (KD2) were calculated.

MV411 = assay: In vitro cell proliferation inhibition assay (CellTiter-Glo), MV411; format: cell-based; conditions: MV411, KRAS wild type, 72 h; read-out: IC50, antiproliferative activity
Experimental: (§2) According to the doubling time of different cell lines, different numbers of cells (1000-5000 cells/well) were seeded into 96-well plates containing 180 μL of the corresponding culture medium, and incubated overnight in a cell incubator at 37 °C with 5% C02. On the following day, the test compounds were pre-diluted in the culture medium in a 3-fold serial dilution series, with the highest concentration being […], resulting in 10 concentration gradients in total. Subsequently, 20 μL of culture medium containing the compounds at different concentrations was added to the cells in the 96-well plates, ensuring a final compound concentration of up to 10 μM, with 10 concentrations in 3-fold dilution. After co-incubation of the cells with the compounds for 72 h, the 96-well plates were removed from the incubator and equilibrated at room temperature for 30 min. Then, 25 μL of CellTiter-Glo® Reagent was added to each well and mixed thoroughly, followed by incubation at room temperature for 10 min. Subsequently, 100 μL of the samples was transferred to white 96-well plates (OptiPlate™-96, PerkinElmer), and […] signal values were read using a multifunctional microplate reader (SpectraMax i3x, Molecular Devices). The signal values were then normalized, and curve fitting was performed using a four-parameter logistic regression equation to calculate the half maximal inhibitory concentration (IC50) of the compounds against the cell lines.

[2] = molecular target: ternary complex comprising RAS and CypA; KRAS^WT (Homo sapiens, UniProt P01116+P62937); assay: Ternary complex binding assay (BLI), KRAS WT; conditions: GMPPNP-loaded KRAS^WT, fixed concentration of CypA, pH 7.4, read-out: KD2 (ternary complex equilibrium dissociation constant)
Experimental: as §1

H358 = assay: In vitro cell proliferation inhibition assay (CellTiter-Glo), H358; format: cell-based; conditions: H358, KRAS (p.G12C), 72 h; read-out: IC50, antiproliferative activity
Experimental: (§3) Due to the diversity of RAS mutations, and in order to evaluate the activity of the compounds in different RAS mutant cell lines, we selected cell lines with KRAS^G12D, KRAS^G12V, KRAS^G12c, NRAS^q61L, KRAS^G13D, KRAS^G12R, and KRAS^WT mutations (see the table below for in vitro activity evaluation and screening of the compounds.
as §2

SW480 = assay: In vitro cell proliferation inhibition assay (CellTiter-Glo), SW480; format: cell-based; conditions: SW480, KRAS (p.G12V), 72 h; read-out: IC50, antiproliferative activity
Experimental: as §3, §2

cyclophilin A (CypA) = molecular target: T1, cyclophilin A (CypA) (Homo sapiens, UniProt P62937); assay: Binary complex binding assay (BLI); conditions: His-tagged CypA, pH 7.4, 1:1 binding model; for Kd: read-out: KD1 (binary complex equilibrium dissociation constant); for kon: read-out: ka (association rate constant); for koff: read-out: kdis (dissociation rate constant)
T1 construct: purchased R&D 3589-CAB
Experimental: To evaluate the binding ability of the test compounds to cyclophilin A (CypA), we employed a Bio-layer Interferometry (BLI) method (Octet R8) to monitor the binding kinetics between the compounds and CypA, and to calculate the affinity of the binary complex. His-tagged CypA protein (3589-CAB, R&D) was first immobilized on an NTA sensor, followed by baseline equilibration for 120 seconds in the assay buffer (20 mM HEPES, pH 7.4, 150 mM NaCl, 5 mM MgCl2, 1 mM TCEP, 0.01% Tween 20). The sensor was then exposed to buffer solutions containing different concentrations of the compounds to monitor the association process in real time. When the high-concentration compound binding reached a plateau, the sensor was transferred to compound-free buffer to measure the dissociation process. To ensure data accuracy, DMSO normalization was performed, non-specific binding was minimized by buffer optimization, and negative and positive controls were set to verify assay specificity. Data were processed using Octet Analysis Studio 13.0, analyzed using a 1:1 binding model, and the association rate constant (ka), dissociation rate constant (kdis), and equilibrium dissociation constant (KD1) were calculated.

HCT116 = assay: In vitro cell proliferation inhibition assay (CellTiter-Glo), HCT116; format: cell-based; conditions: HCT116, KRAS (p.G13D), 72 h; read-out: IC50, antiproliferative activity
Experimental: as §3, §2

[3] = molecular target: ternary complex comprising RAS and CypA; KRAS^G12D (Homo sapiens, UniProt P01116+P62937, G12D); assay: Ternary complex binding assay (BLI), KRAS G12D; conditions: GMPPNP-loaded KRAS^G12D, fixed concentration of CypA, pH 7.4, read-out: KD2 (ternary complex equilibrium dissociation constant)
Experimental: as §1

AsPC-1 = assay: In vitro cell proliferation inhibition assay (CellTiter-Glo), AsPC-1; format: cell-based; conditions: AsPC-1, KRAS (p.G12D), 72 h; read-out: IC50, antiproliferative activity
Experimental: as §3, §2

PSN1 = assay: In vitro cell proliferation inhibition assay (CellTiter-Glo), PSN1; format: cell-based; conditions: PSN1, KRAS (p.G12R), 72 h; read-out: IC50, antiproliferative activity
Experimental: as §3, §2

[4] = Pharmacokinetic study in mice; format: in vivo; conditions: mouse, male CD-1 mice; for bioavailability: blood; for bioavailability / AUC / Cmax: po; for Vd / clearance: iv; for Vd / clearance / AUC / Cmax: whole blood
Experimental: To evaluate the pharmacokinetic behavior of the compounds of the disclosure in male CD-1 mice, the test compounds were dissolved in a solvent (5% DMSO/10% solutol/85% water). Twelve male CD-1 mice were divided into two groups, with six animals in each group. Group 1 received a single intravenous bolus (i.v.) administration of the compound, and Group 2 received a single oral (p.o.) administration of the compound. Whole blood samples were collected at 0.083 h (intravenous group only), 0.25, 0.5, 1, 2, 4, 8, and 24 hours after dosing. The concentration of the test compound in whole blood samples was determined using the LC-MS/MS method.

HepG2 = assay: In vitro cell proliferation inhibition assay (CellTiter-Glo), HepG2; format: cell-based; conditions: HepG2, NRAS (p.Q61L), 72 h; read-out: IC50, antiproliferative activity
Experimental: as §3, §2

T1 sequence (P62937 whole entry): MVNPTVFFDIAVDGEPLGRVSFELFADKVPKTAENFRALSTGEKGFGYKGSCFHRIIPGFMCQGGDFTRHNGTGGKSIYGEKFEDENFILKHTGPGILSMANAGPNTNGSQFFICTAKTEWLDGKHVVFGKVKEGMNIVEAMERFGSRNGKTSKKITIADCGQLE
Chain of ternary complex comprising RAS and CypA; KRAS^G12V (P01116 1-188 isoform P01116-2 G12V): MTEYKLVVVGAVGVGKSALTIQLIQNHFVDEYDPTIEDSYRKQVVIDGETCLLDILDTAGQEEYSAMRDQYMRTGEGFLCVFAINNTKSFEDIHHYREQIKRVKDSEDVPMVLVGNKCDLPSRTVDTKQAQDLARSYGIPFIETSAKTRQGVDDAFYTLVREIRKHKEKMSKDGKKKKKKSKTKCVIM
Chain of ternary complex comprising RAS and CypA; KRAS^G12V (P62937 whole entry): as the sequence (P62937 whole entry) above
Chain of ternary complex comprising RAS and CypA; KRAS^G12D (P01116 1-188 isoform P01116-2 G12D): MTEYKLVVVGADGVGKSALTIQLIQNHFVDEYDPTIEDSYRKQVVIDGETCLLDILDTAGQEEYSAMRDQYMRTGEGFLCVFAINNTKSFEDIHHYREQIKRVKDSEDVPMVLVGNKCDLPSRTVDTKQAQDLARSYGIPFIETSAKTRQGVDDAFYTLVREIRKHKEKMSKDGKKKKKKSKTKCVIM
Chain of ternary complex comprising RAS and CypA; KRAS^G12D (P62937 whole entry): as the sequence (P62937 whole entry) above
Chain of ternary complex comprising RAS and CypA; KRAS^WT (P01116 1-188 isoform P01116-2): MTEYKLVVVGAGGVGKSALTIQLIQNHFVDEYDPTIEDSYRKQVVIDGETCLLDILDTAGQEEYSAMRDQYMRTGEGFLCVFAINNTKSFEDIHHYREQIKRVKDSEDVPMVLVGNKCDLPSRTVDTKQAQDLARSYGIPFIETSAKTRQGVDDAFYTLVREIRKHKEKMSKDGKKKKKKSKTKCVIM
Chain of ternary complex comprising RAS and CypA; KRAS^WT (P62937 whole entry): as the sequence (P62937 whole entry) above

| SMILES | Kd [1] | IC50 (MV411) | Kd [2] | IC50 (H358) | IC50 (SW480) | Kd (cyclophilin A (CypA)) | kon (cyclophilin A (CypA)) | koff (cyclophilin A (CypA)) | IC50 (HCT116) | Kd [3] | IC50 (AsPC-1) | IC50 (PSN1) | IC50 (HepG2) | other results |
| --- | --- | --- | --- | --- | --- | --- | --- | --- | --- | --- | --- | --- | --- | --- |
| CO[C@@H](C)c1ncc(-c2nnc(C3CCN(C4COC4)CC3)o2)cc1-c1c2c3cc(ccc3n1CC(F)(F)F)-c1csc(n1)C[C@H](NC(=O)[C@H]1[C@H](C)[C@@H]1C)C(=O)N1CCC[C@H](N1)C(=O)OCC(C)(C)C2 (atropisomer, axis not shown) [Compound 6, (1r,2R,3S)—N-((6^3S,4S,Z)-1^2-(2-((S)-1-methoxyethyl)-5-(5-(1-(oxetan-3-yl)piperidin-4-yl)-1,3,4-oxadiazol-2-yl)pyridin-3-yl)-10,10-dimethyl-5,7-dioxo-1^1-(2,2,2-trifluoroethyl)-6^1,6^2,6^3,6^4,6^5,6^6-hexahydro-1^1H-8-oxa-2(4,2)-thiazola-1(5,3)-indola-6(1,3)-pyridazinacycloundecaphane-4-yl)-2,3-dimethylcyclopropane-1-carboxamide] | 26 nM | 0.12 nM | 16 nM | 0.007 nM | 0.03 nM | 3 nM | 130000 M⁻¹ s⁻¹ | 0.0004 s⁻¹ | 0.44 nM | 24 nM | 0.02 nM | 0.04 nM | 0.04 nM | bioavailability ([4]; i.v. 1 mpk, p.o. 2 mpk): 43.1%; Vd ([4]; 1 mg/kg, i.v. 1 mpk): 1.14 L/kg; clearance ([4]; 1 mg/kg, i.v. 1 mpk): 2.6 mL/min/kg; AUC ([4]; 2 mg/kg, p.o. 2 mpk): 5630 ng·h/mL; Cmax ([4]; 2 mg/kg, p.o. 2 mpk): 439 ng/mL |
| CO[C@@H](C)c1ncc(-c2nnc(C3CCN(C4COC4)CC3)o2)cc1-c1c2c3cc(ccc3n1CC(F)(F)F)-c1csc(n1)C[C@H](NC(=O)C1[C@@H](C)[C@H]1C)C(=O)N1N[C@H](C(=O)OCC(C)(C)C2)C2CC1C2 (stereo partly drawn) [Compound 8] | 8.3 nM | 0.07 nM | 10 nM | 0.01 nM | 0.01 nM | 2 nM | 330000 M⁻¹ s⁻¹ | 0.00066 s⁻¹ | 0.03 nM | 8.8 nM | 0.01 nM | 0.01 nM | 0.02 nM | bioavailability ([4]; i.v. 0.25 mpk, p.o. 0.5 mpk): 54.6%; Vd ([4]; i.v. 0.25 mpk): 1.84 L/kg; clearance ([4]; i.v. 0.25 mpk): 1.8 mL/min/kg; AUC ([4]; 0.5 mg/kg, p.o. 0.5 mpk): 2590 ng·h/mL; Cmax ([4]; 0.5 mg/kg, p.o. 0.5 mpk): 96 ng/mL |
